# In US8143374B2, “Polypeptide derivatives of parathyroid hormone (PTH)” (The General Hospital Corporation, priority 2006, dated 2012):
# Entries after “also recorded” stand apart in the source; their conditions may differ. Where no end group is shown, it is not given here.
# What was measured:
# [1] = Circular dichroism spectroscopy, helical residues per peptide chain; assay type: physicochemical; details: calculated from [θ]222
# How it was run: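 Helical residue count per peptide chain derived from 222 nm mean residue ellipticity via −[θ]222×30/28,000. Spectra taken at 20 °C as four-scan averages, with concentrations verified by absorbance at 280 nm (single tryptophan, 5700 M^−1).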
# [2] = molecular target: T1, wild-type human PTHR (Homo sapiens, UniProt Q03431); test: Competition binding in intact HKRK-B7 cells with 125I-PTH(1-34) tracer; details: for enhancement in apparent PTHR-binding affinity relative to parent peptide / detectable binding to the intact PTHR (in words) / reduction (alteration) of apparent binding affinity for the intact PTHR relative to parent peptide: HKRK-B7 cells; for enhancement in apparent PTHR-binding affinity relative to parent peptide: versus PTH(1-31)NH2; for IC50: hPTH(1-31)NH2 analogs, intact HKRK-B7 cells, 125I-[Nle8,21,Tyr34]ratPTH(1-34)NH2 tracer, read-out: PTHR-WT (HKRK-B7 cells) IC50; for reduction (alteration) of apparent binding affinity for the intact PTHR relative to parent peptide: versus the respective parent peptide
# T1 construct: expressed in transfected cells
# T1 sequence (Q03431 27-593): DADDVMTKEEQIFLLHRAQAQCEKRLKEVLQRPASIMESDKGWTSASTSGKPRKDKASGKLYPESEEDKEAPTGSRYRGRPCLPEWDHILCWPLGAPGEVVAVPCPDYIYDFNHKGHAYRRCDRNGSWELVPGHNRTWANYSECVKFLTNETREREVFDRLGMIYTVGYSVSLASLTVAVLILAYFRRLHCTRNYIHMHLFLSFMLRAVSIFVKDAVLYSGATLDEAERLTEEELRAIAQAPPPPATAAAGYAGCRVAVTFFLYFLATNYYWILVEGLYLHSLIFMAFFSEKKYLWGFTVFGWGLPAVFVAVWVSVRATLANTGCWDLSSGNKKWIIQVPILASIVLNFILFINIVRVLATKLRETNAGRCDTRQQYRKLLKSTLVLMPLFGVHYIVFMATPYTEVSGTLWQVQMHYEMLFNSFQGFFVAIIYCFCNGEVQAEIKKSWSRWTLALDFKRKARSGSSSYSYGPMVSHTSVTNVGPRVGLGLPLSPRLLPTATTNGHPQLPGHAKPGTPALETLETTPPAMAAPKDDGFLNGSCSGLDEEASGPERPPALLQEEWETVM
# Method: Cell Culture—Cells were cultured at 37° C. in a humidified atmosphere containing 5% CO2 in Dulbecco's modified Eagle's medium (DMEM), supplemented with 10% fetal bovine serum (HyClone, Logan Utah), 100 units/ml penicillin G, and 100 ug/ml streptomycin penicillin G/streptomycin (Invitrogen Corp. Carlsbad, Calif.). For binding and cAMP studies performed with the intact PTHR, the HKRK-B7 and ROS 17/2.8 cell lines were used. HKRK-B7 cells are derived from the porcine kidney cell line LLC-PK1 and express, via stable DNA transfection, the wild-type human PTHR at an approximate surface density of 950,000 PTH-binding sites per cell. ROS 17/2.8 cells are rat osteosarcoma cells and express the endogenous PTHR at an approximate surface density of 80,000 PTH-binding sites per cell. The cells were plated and assayed in 24-well plates.
# Receptor binding—Binding to the wild-type human PTHR in intact HKRK-B7 cells and ROS 17/2.8 cells was assessed using ^125I-PTH(1-34) as a tracer radioligand, as described (Shimizu, M., (2001) Endocrinology 142:3068-3074). In brief, the cells in 24-well plates (about 500,000 cells per well) were incubated in binding buffer containing radioligand (about 100,000 cpm per well) with or without unlabeled peptide ligand (3×10^−9 to 1×10^−5 M) for four hours at 15° C. The binding mixture was then removed by aspiration, the cells were rinsed three times with binding buffer, lysed in 1 M NaOH, and the entire lysate was counted for gamma-irradiation in a gamma counter. Binding to PTHR-delNt in COS-7 cell membranes was assessed in 96-well, vacuum filtration plates (Multiscreen-Durapore HV, […] membranes, Millipore Corp., Millford, Mass.) using ^125I-[Aib^1,3,M]PTH(1-15)NH2 as a tracer radioligand, as described (Dean, T., (2006) Mol Endocrinol 20:931-942). In brief, cell membranes (20 μg/well) were incubated in membrane binding buffer containing radioligand (30,000 cpm/well) with or without unlabeled peptide ligand (3×10^−9 to 1×10^−5 M) for 90 minutes at 21° C. The plates were then subject to rapid vacuum filtration, the filters were washed once with buffer, detached from the plate and counted for gamma-irradiation in a gamma counter. Non-specific binding was defined as the binding observed in the presence of 1×10^−6 M PTH(1-31)NH2 for HKRK-B7 and ROS 17/2.8 cells, and 1×10^−6 M [Aib^1,3,M]PTH(1-15)NH2 for PTHR-delNt. Specifically bound radioactivity was calculated as a percentage of the radioactivity specifically bound in the absence of competing ligand.
# Data and statistical calculations—Data were processed for curve fitting and derivation of IC50 and EC50 values using least-squares, nonlinear regression analysis and the four parameter logistic equation: […], where y, ymin and ymax are the observed, minimum and maximum response values, respectively; x is ligand concentration, and n is the slope factor. In cases where incomplete inhibition of binding occurred: i.e. with certain PTH(1-31) analogs binding to PTHR-delNt, the curve fits and IC50 values were derived by extrapolating the data to the maximum inhibition attained by [Aib^1,3,M]PTH(1-15)NH2. Paired data sets were statistically compared using a two-tailed Student's t-test, assuming unequal variances for the two sets.
CD helical residues ([1]; hPTH(1-31)NH2 analogs),enhancement in apparent PTHR-binding affinity relative to parent peptide [2],IC50 [2],"CD helical residues ([1]; [Ala1,Arg19]hPTH(1-31)NH2 analogs)",reduction (alteration) of apparent binding affinity for the intact PTHR relative to parent peptide [2],Substance,detectable binding to the intact PTHR (in words) [2]
9,≦two-fold,0.049 ± 0.011 µM,–,–,SVSEIQLMHNLGKHLNSMARVEWLRKKLQDV-NH2 [Glu^19→Ala],–
10,–,–,–,three- to four-fold,SVSEIQLMHNLGKHLNSMERAEWLRKKLQDV-NH2 [Val^21→Ala],–
9,≦two-fold,–,–,–,SVSEIQLMHNLGKHLNSMERVAWLRKKLQDV-NH2 [Glu^22→Ala],–
7,–,–,–,19 fold,SVSEIQLMHNLGKHLNSMERVEALRKKLQDV-NH2 [Trp^23→Ala],–
7,–,–,–,12 fold,SVSEIQLMHNLGKHLNSMERVEWARKKLQDV-NH2 [Leu^24→Ala],–
7,–,0.125 ± 0.008 µM,–,–,SVSEIQLMHNLGKHLNSMERVEWLRAKLQDV-NH2 [Lys^26→Ala],–
9,–,–,–,three- to four-fold,SVSEIQLMHNLGKHLNSMERVEWLRKALQDV-NH2 [Lys^27→Ala],–
8,–,–,–,three- to four-fold,SVSEIQLMHNLGKHLNSMERVEWLRKKAQDV-NH2 [Leu^28→Ala],–
9,–,–,–,three- to four-fold,SVSEIQLMHNLGKHLNSMERVEWLRKKLQDA-NH2 [Val^31→Ala],–
8,≦two-fold,–,–,–,SVSEIQLMHNLGKHLNSMRRVEWLRKKLQDV-NH2 [Glu^19→Arg],–

# Continued, substance first:
Substance,CD helical residues ([1]; hPTH(1-31)NH2 analogs),enhancement in apparent PTHR-binding affinity relative to parent peptide [2],IC50 [2],"CD helical residues ([1]; [Ala1,Arg19]hPTH(1-31)NH2 analogs)",reduction (alteration) of apparent binding affinity for the intact PTHR relative to parent peptide [2],detectable binding to the intact PTHR (in words) [2]
SVSEIQLMHNLGKHLNSMEAVEWLRKKLQDV-NH2 [Arg^20→Ala],10,–,> 10 µM,–,–,abolished detectable binding altogether; also recorded: abolished binding to the PTHR
SVSEIQLMHNLGKHLNSMEEVEWLRKKLQDV [Arg^20→Glu],7,–,–,8,–,abolished detectable binding; also recorded: complete loss of detectable binding affinity
SVSEIQLMHNLGKHLNSMEKVEWLRKKLQDV-NH2 [Arg^20→Lys],8,–,> 10 µM,–,–,complete loss of detectable binding affinity
SVSEIQLMHNLGKHLNSMEQVEWLRKKLQDV-NH2 [Arg^20→Gln],7,–,> 10 µM,–,–,complete loss of detectable binding affinity
SVSEIQLMHNLGKHLNSMERVEWLAKKLQDV-NH2 [Arg^25→Ala],7,–,–,–,three- to four-fold,–
SVSEIQLMHNLGKHLNSMERVEWLRKKLADV-NH2 [Gln^29→Ala],9,≦two-fold,–,–,–,–
"SVSEIQLMHNLGKHLNSMRRVAWLRKKLQDV-NH2 [Glu^19,22→Arg,Ala]",8,did not lead to further improvements,0.054 ± 0.013 µM,–,–,–
